5 molecules from BindingDB's records for doi:10.1016/S0960-894X(01)80136-0 (1994) can be followed below.

pKi: −log10 of the molar value.

A short description of this test: Apparent inhibition constant of the FKBP […] isomerase (PPIase) activity.
One may read the pKi as the negative decadic logarithm of the Ki, by convention in mol/L. Consider `CC1(C)COC(=O)CCCCCCCCCOC(=O)[C@@H]2CCCCN2C(=O)C1=O`, for which the pKi was 4.52.
Consider `CC1(C)COC(=O)CCCCCCCCCCCCCCCOC(=O)C2CCCCN2C(=O)C1=O` (stereo not given) [7,7-Dimethyl-icosahydro-9,26-dioxa-4a-aza-benzocyclopentacosene-5,6,10,27-tetraone], for which the pKi is 1.96.
Under `CC1(C)COC(=O)CCCOC(=O)C2CCCCN2C(=O)C1=O` (stereo not given) [7,7-Dimethyl-octahydro-9,14-dioxa-4a-aza-benzocyclotridecene-5,6,10,15-tetraone] stands 2.54; under `CC1(C)COC(=O)CCCCCCCCCOC(=O)C2CCCCN2C(=O)C1=O` (stereo not given) [7,7-Dimethyl-tetradecahydro-9,20-dioxa-4a-aza-benzocyclononadecene-5,6,10,21-tetraone], 4.05.
Then `CC1(C)COC(=O)CCCCCCCCCCC(CCC2CCCCC2)OC(=O)C2CCCCN2C(=O)C1=O` (stereo not given) [21-(2-Cyclohexyl-ethyl)-7,7-dimethyl-hexadecahydro-9,22-dioxa-4a-aza-benzocyclohenicosene-5,6,10,23-tetraone], with 3.72.
